In US9850283B2, “Macrocyclic inhibitors of the PD-1/PD-L1 and CD80(B7-1)/PD-L1 protein/protein interactions” (BRISTOL-MYERS SQUIBB COMPANY, priority 2013, dated 2017):
Like-named read-outs stand apart in the source and are kept apart here. Positions of bridges follow the written chain, without caps; N, C: chain ends. Non-standard residues stand in square brackets, D forms with d. Residues, ends and D or L forms follow the SMILES beside them. ξ: configuration not given here. NMeNle = CCCC[C@H](NC)C(=O)O; NMeA = CN[C@@H](C)C(=O)O; ξP = O=C(O)C1CCCN1; Sar = CNCC(=O)O

Legend:
Human PD-L1/PD-1 = molecular target: T1, Human PD-L1/PD-1 (Homo sapiens, UniProt Q9NZQ7); experiment: HTRF PD-1-Ig/PD-L1-His binding assay (human PD-L1); details: read-out: HTRF Human PD-L1/PD-1 Binding Assay IC50
T1 construct: made in house; host or cells: HEK293T
Outline: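 Soluble PD-1-Ig binding to PD-L1-His measured by HTRF in dPBS with 0.1% BSA and 0.05% Tween-20. Detection used europium cryptate anti-Ig antibody (1 nM final) and APC anti-His antibody (20 nM final) added on top of the binding reaction.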

CMV-specific T cells = details: read-out: EC50, IFNγ secretion by CMV-specific T cells; FIG. 10A-C
Hu PD-L1/PD-1 = Hu PD-L1/PD-1 (Homo sapiens, UniProt Q9NZQ7); experiment: Cell binding assay Hu PD-L1/PD-1 (Tables 11-13, cell line not given); format: cell-based; details: Table 11
Outline: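 Three formats. In the L2987 imaging assay, natively PD-L1-expressing cells received inhibitor and PE-PD-1-Ig for 1 h at 37 °C, followed by fixation and nuclear Hoechst staining. In the flow-cytometry assays, LK35.2 cells overexpressing hPD-L1 were pre-treated 15 min with inhibitor, then bound 2 nM PE-PD-1-Ig for 1 h at RT in RPMI/2% FCS, while Jurkat-PD-1 cells bound PE-PD-L1-Ig.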

T1 sequence (Q9NZQ7 with tags, fused parts or gaps): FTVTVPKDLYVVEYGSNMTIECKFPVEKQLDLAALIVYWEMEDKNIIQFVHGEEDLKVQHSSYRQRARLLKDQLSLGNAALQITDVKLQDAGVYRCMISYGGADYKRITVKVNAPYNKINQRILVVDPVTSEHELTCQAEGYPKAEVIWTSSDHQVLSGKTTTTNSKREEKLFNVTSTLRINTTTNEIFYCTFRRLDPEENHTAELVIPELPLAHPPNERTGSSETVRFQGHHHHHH
Sequence of Hu PD-L1/PD-1 (Q9NZQ7 19-290): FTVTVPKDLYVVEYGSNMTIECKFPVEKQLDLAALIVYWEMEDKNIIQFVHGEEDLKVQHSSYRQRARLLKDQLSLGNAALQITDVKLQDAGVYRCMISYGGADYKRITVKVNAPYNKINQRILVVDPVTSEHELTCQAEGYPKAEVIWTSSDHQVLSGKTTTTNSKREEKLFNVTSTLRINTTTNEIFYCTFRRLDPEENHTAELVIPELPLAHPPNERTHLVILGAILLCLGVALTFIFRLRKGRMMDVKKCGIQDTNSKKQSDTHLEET

Structure (SMILES)	IC50 (Human PD-L1/PD-1; Table 6) [µM]	IC50 (Human PD-L1/PD-1; Table 8, Compound No. 1 variant macrocyclic peptides) [µM]	EC50 (CMV-specific T cells) [µM]	IC50 (Hu PD-L1/PD-1) [µM]	IC50 (Human PD-L1/PD-1; Table 9, Compound No. 71 variant macrocyclic peptides) [µM]	IC50 (Human PD-L1/PD-1; Table 7, Compound No. 99 variant macrocyclic peptides) [µM]
CCCC[C@H]1C(=O)N(C)[C@@H](CCCC)C(=O)N[C@@H](CCCNC(=N)N)C(=O)N[C@H](C(=O)NCC(N)=O)CSCC(=O)N[C@@H](Cc2ccccc2)C(=O)N(C)[C@@H](C)C(=O)N[C@@H](CC(N)=O)C(=O)N2CCCC2C(=O)N[C@@H](Cc2cnc[nH]2)C(=O)N[C@@H](CC(C)C)C(=O)N(C)CC(=O)N[C@@H](Cc2c[nH]c3ccccc23)C(=O)N[C@@H](CO)C(=O)N[C@@H](Cc2c[nH]c3ccccc23)C(=O)N1C (stereo partly drawn) [Compound No. 1] ({CH2CO}-F[NMeA]N[ξP]HL[Sar]WSW[NMeNle][NMeNle]RCG-NH2; thioether N-14)	0.009	0.009	0.4	–	–	–
CCCC[C@H]1C(=O)N(C)[C@@H](CCCC)C(=O)N[C@@H](CC(C)C)C(=O)N[C@H](C(=O)NCC(N)=O)CSCC(=O)N[C@@H](Cc2ccccc2)C(=O)N(C)[C@@H](C)C(=O)N[C@@H](CC(N)=O)C(=O)N2CCCC2C(=O)N[C@@H](Cc2cnc[nH]2)C(=O)N[C@@H](Cc2c[nH]cn2)C(=O)N[C@@H](CO)C(=O)N[C@@H](Cc2c[nH]c3ccccc23)C(=O)N[C@@H](CCCNC(=N)N)C(=O)N[C@@H](Cc2c[nH]c3ccccc23)C(=O)N1C (stereo partly drawn) [Compound No. 2] ({CH2CO}-F[NMeA]N[ξP]HHSWRW[NMeNle][NMeNle]LCG-NH2; thioether N-14)	–	–	0.4	0.043	–	–
CCCC[C@H]1C(=O)N(C)CC(=O)N[C@@H](CC(=O)O)C(=O)N[C@@H](C(C)C)C(=O)N(C)[C@@H](Cc2ccccc2)C(=O)N[C@@H](Cc2ccc(O)cc2)C(=O)N(C)CC(=O)N[C@@H](Cc2c[nH]c3ccccc23)C(=O)N[C@@H](Cc2ccc(O)cc2)C(=O)N[C@@H](CC(C)C)C(=O)N[C@H](C(=O)NCC(N)=O)CSCC(=O)N[C@@H](Cc2ccccc2)C(=O)N(C)[C@@H](Cc2ccccc2)C(=O)N1C [Compound No. 71] (HELM PEPTIDE1{[O=C(C[*:3])[*:2]].F.[meF].[CCCC[C@@H](C(=O)[*:2])N(C)[*:1]].[Sar].D.V.[meF].Y.[Sar].W.Y.L.C.G.[am]}$PEPTIDE1,PEPTIDE1,1:R3-14:R3$$$V2.0)	0.007	–	0.3	0.01	0.007	–
CC[C@H](C)[C@@H]1NC(=O)[C@H](CC(C)C)NC(=O)[C@H](Cc2ccccc2)NC(=O)CSC[C@@H](C(=O)NCC(N)=O)NC(=O)[C@H](CCCNC(=N)N)NC(=O)[C@H](Cc2ccccc2)NC(=O)[C@H](C(C)C)NC(=O)[C@H](CCCNC(=N)N)NC(=O)[C@H](CC(=O)O)NC(=O)[C@H](CCCNC(=N)N)NC(=O)[C@H]([C@@H](C)CC)NC(=O)[C@H](C(C)C)NC1=O [Compound No. 99] (HELM PEPTIDE1{[O=C(C[*:3])[*:2]].F.L.I.V.I.R.D.R.V.F.R.C.G.[am]}$PEPTIDE1,PEPTIDE1,1:R3-13:R3$$$V2.0)	0.153	–	> 10	–	–	0.153
